The text below walks through data of US9618507B2, “Methods of treating rheumatoid arthritis” (Betanien Hospital, priority 2014, dated 2017).

The structures appear in SMILES notation. Where a SMILES comes first, the peptide text is derived from it. [ ]: non-standard residue; d: D form. dPhe(4-Cl) = N[C@H](Cc1ccc(Cl)cc1)C(=O)O; d2Nal = N[C@H](Cc1ccc2ccccc2c1)C(=O)O; dCit = NC(=O)NCCC[C@@H](N)C(=O)O; d3Pal = N[C@H](Cc1cccnc1)C(=O)O

Series [1] concerns RA patients. In words: Example 1: adverse events. Format: in vivo, human. The protocol:
(§1) Ethical committee approval was obtained. […] Safety and efficacy visits, with blood sampling, were between 0730 and 0930 h on days 1 (baseline), 2, 3, 4, 5 (visit 5a), 10, and 15. There was an additional visit (visit 5b) between 1930 and 2130 h when maximum GnRH suppression was anticipated.
Predefined secondary end-points included the baseline adjusted between-group difference inTNF-α, ACR20/50/70 responses, European League Against Rheumatism (EULAR) responses, DAS28-CRP <2.6 and ≦3.2, and adverse events.
The Newcombe hybrid score interval was used to estimate 95% confidence intervals (CI) for the difference between proportions (Fagerland M W, et al., Stat Methods Med Res 2011). No adjustments for multiple analyses were made, owing to the highly correlated variables. All clinical, biochemical, and safety data were analyzed by an intention-to-treat analysis. Only predefined endpoints are presented. The intention-to-treat population was predefined in the protocol as all randomized patients who received any injections of study drug. Missing values were <1% and could, as predefined, be imputed with the last observation carried forward. The assumptions of normality needed for analyses were approximately valid. The Spearman rank correlation coefficient (Spearman's rho) was used to estimate the association between pairs of continuous variables.

The test system of series [2] is LH, FSH, cortisol. As to the kind of experiment: Example 1: serum hormone assays (LH, FSH, cortisol). It counts as in vivo, human. The protocol: as §1
Non-competitive immunofluorometric assays were used for the quantitative determination of serum LH and FSH (Dissociation Enhanced Lanthanide Fluoroimmunoassay [DELFIA] kit, Turku, Finland). A competitive immunofluorometric assay was used for the determination of serum oestradiol (DELFIA kit, Turku, Finland). A competitive radioimmunoassay was used for the quantitative determination of serum testosterone (Orion Diagnostica. Espoo, Finland). A competitive Iuminoimmunoassay was used for the quantitative determination of serum cortisol (Immulite 2000, California, USA).

Take `CC(=O)N[C@H](Cc1ccc2ccccc2c1)C(=O)N[C@H](Cc1ccc(Cl)cc1)C(=O)N[C@H](Cc1cccnc1)C(=O)N[C@@H](CO)C(=O)N[C@@H](Cc1ccc(O)cc1)C(=O)N[C@H](CCCNC(N)=O)C(=O)N[C@@H](CC(C)C)C(=O)N[C@@H](CCCNC(=N)N)C(=O)N1CCC[C@H]1C(=O)N[C@H](C)C(N)=O` [cetrorelix] (Ac-[d2Nal][dPhe(4-Cl)][d3Pal]SY[dCit]LRP[dA]-NH2): in series [1] (N = 48), the “Adverse effects: Headache” value is reported as 2 (4.2) n (percent), the “Adverse effects: Hot flushes” value is 2 (4.2) n (percent), the “Adverse effects: Injection site discomfort” value is 3 (6.3) n (percent) and the “Adverse effects: Menstrual spotting” value was 2 (4.2) n (percent). In series [1] (N = 48), the “Adverse effects: Nasopharyngitis” value is listed as 1 (2.1) n (percent), the “Adverse effects: Nausea” value is reported as 0 n (percent), the “Adverse effects: Toothache” value is reported as 0 n (percent) and the “Adverse effects: Urinary tract infection” value is reported as 1 (2.1) n (percent). The serious side-effects entry in series [1] (all patients) is recorded as “no serious side-effects were observed”. Also, the “LH and FSH levels” value in series [2] (all patients allocated to cetrorelix, onset) is “reduced as early as day 2”. The “Cortisol changes between groups” value in series [2] (all patients, by day 5, p 0.80) is reported as “not significantly different between groups”.
